# Test results as given in patent US20060159648A1, “Novel therapeutic method and compositions for topical administration” (priority 2003, published 2006).
# Like-named read-outs stand apart in the source and are kept apart here.
# Columns and labels:
# [1] = cited from earlier work; for clearance: in adults
# [2] = human pharmacokinetics after oral dosing (literature); format: in vivo, humans; conditions: for Z, target local free (unbound) concentration = peak plasma free drug concentration: peak plasma concentration*(100-PBF)/100
# Source text: Z is expressed in units of ng/ml and is the target local free ( i.e. unbound) concentration that is expected to have a therapeutic effect against the skin condition. In the case of PPAR gamma agonists, Z should correspond to the peak plasma free drug concentration generated by dosing these drugs orally to treat effectively Type II diabetes mellitus. The appropriate value of Z may be determined experimentally in vivo by conventional known means using standard protocols.
# C is expressed in units of ml/hr and is the rate of clearance of the drug substance. Clearance may be determined experimentally in vivo by conventional known means using standard tests. For example it can be determined from the plasma concentration in response to a defined input of drug using the equation given below: Clearance (ml/hr)=Input rate (ng/hr)/Total plasma concentration (ng/ml)
# [3] = cited from earlier work; for Plasma protein binding: Product Information; for plasma bound fraction: value used in the flux equations
# fasting plasma glucose = conditions: type II diabetes patients, cited from earlier work
SMILES,Peak plasma concentration ([1]; 30 mg dose),clearance [1] [mL/h],"Z, target local free (unbound) concentration = peak plasma free drug concentration [2] [ng/mL]",Plasma protein binding [3] [%],plasma bound fraction [3] [%],Peak plasma concentration ([1]; 8 mg dose),time to achieve a reduction of fasting plasma glucose by 2 mmol 1 (fasting plasma glucose; 2 mg b.i.d. dosage regimen),time to achieve a reduction of fasting plasma glucose by 2 mmol 1 (fasting plasma glucose; 4 mg b.i.d. dosage regimen),Peak plasma concentration ([1]; 400 mg dose),Bioavailability ([1]; with a meal) [%],Clearance/Bioavailability ([1]; with a meal) [mL/min],"clearance ([2]; human, plasma, oral, in adults, from Clearance/Bioavailability and bioavailability with a meal) [mL/min]"
"CCc1ccc(CCOc2ccc(CC3SC(=O)NC3=O)cc2)nc1 (stereo not drawn) [pioglitazone, 5-[4-[2-(5-ethyl-2-pyridyl)ethoxy]benzyl]thiazolidine-2,4-dione]",about 700 ng/ml,2400,3.5,> 99,99.5,,,,,,,
"CN(CCOc1ccc(CC2SC(=O)NC2=O)cc1)c1ccccn1 (stereo not drawn) [rosiglitazone, 5-[4-[2-(N-methyl-N-(2-pyridyl)amino)ethoxy]benzyl]thiazolidine-2,4-dione]",,2780,1.7,,99.72,about 600 ng/ml,about 8 weeks,about 4 weeks,,,,
"Cc1c(C)c2c(c(C)c1O)CCC(C)(COc1ccc(CC3SC(=O)NC3=O)cc1)O2 (stereo not drawn) [troglitazone, 5-[[4-[(3,4-dihydro-6-hydroxy-2,5,7,8-tetramethyl-2H-1-benzopyran-2-yl)methoxy]phenyl]methyl]-2,4-thiazolidinedione]",,,7.5,99,99.5,,,,about 1500 ng/ml,~85,500,425
